The nature of data set [1]: Drug metabolism in human liver microsomes assessed as N-((1-hydroxy-1,2,3,5,6,7-hexahydro-s-indacen-4-yl)carbamoyl)-4-(2-hydroxypropan-2-yl)furan-2-sulfonamide formation at 5 uM preincubated for 20 mins followed by NADPH addition measured after 120 mins by HPLC/ESI-SRM-MS/MS analysis. It counts as ADME. The conditions noted are these: 2 h.
A short description of data set [2]: Cytotoxicity against human HepG2 cells assessed as decrease in cell viability after 20 hrs by resazurin based fluorescence assay. It counts as toxicity.
A short description of data set [3]: Drug metabolism in human liver microsomes assessed as R-(+)- N-((1-hydroxy-1,2,3,5,6,7-hexahydro-s-indacen-4-yl)carbamoyl)-4-(2-hydroxypropan-2-yl)furan-2-sulfonamide formation at 5 uM preincubated for 20 mins followed by NADPH addition measured after 120 mins by HPLC/ESI-SRM-MS/MS analysis. In kind it is ADME. Particulars: 2 h.
A short description of data set [4]: Drug metabolism in human liver microsomes assessed as R-(+)- N-((1-hydroxy-1,2,3,5,6,7-hexahydro-s-indacen-4-yl)carbamoyl)-4-(2-hydroxypropan-2-yl)furan-2-sulfonamide formation at 5 uM preincubated for 20 mins followed by NADPH addition measured after 120 mins by QTOF-ESI-MS/MS analysis. It counts as ADME. The conditions noted are these: 2 h.
Data set [5] is described as follows: Cytotoxicity against human HEK293 cells assessed as decrease in cell viability after 20 hrs by resazurin based fluorescence assay. It counts as toxicity.
The target in data set [6] is NACHT, LRR and PYD domains-containing protein 3 (Homo sapiens, UniProt Q96P20). Kind of data set: Inhibition of NLRP3 inflammasome in LPS-stimulated human monocyte derived macrophages assessed as reduction in NLRP3 inflammasome-induced IL-1beta production preincubated for 30 mins followed by NLRP3 stimulation with ATP for 1 hr by ELISA.
Data set [7] in a line: Drug level in human liver microsomes treated with 5 uM MCC950 preincubated for 20 mins followed by NADPH addition measured after 120 mins by QTOF-ESI-MS/MS analysis. In kind it is ADME. Particulars: 2 h.
Data set [8] is described as follows: Drug level in human liver microsomes treated with 5 uM MCC950 preincubated for 20 mins followed by NADPH addition measured after 120 mins by HPLC/ESI-SRM-MS/MS analysis. It counts as ADME. Particulars: 2 h.

This note sets out measurements from ChEMBL document CHEMBL3862040, “Identification, Synthesis, and Biological Evaluation of the Major Human Metabolite of NLRP3 Inflammasome Inhibitor MCC950” (ACS Med Chem Lett, 2016).

Structures are written as SMILES.

Chain of NACHT, LRR and PYD domains-containing protein 3 (Q96P20 whole entry, the tested form may be a part): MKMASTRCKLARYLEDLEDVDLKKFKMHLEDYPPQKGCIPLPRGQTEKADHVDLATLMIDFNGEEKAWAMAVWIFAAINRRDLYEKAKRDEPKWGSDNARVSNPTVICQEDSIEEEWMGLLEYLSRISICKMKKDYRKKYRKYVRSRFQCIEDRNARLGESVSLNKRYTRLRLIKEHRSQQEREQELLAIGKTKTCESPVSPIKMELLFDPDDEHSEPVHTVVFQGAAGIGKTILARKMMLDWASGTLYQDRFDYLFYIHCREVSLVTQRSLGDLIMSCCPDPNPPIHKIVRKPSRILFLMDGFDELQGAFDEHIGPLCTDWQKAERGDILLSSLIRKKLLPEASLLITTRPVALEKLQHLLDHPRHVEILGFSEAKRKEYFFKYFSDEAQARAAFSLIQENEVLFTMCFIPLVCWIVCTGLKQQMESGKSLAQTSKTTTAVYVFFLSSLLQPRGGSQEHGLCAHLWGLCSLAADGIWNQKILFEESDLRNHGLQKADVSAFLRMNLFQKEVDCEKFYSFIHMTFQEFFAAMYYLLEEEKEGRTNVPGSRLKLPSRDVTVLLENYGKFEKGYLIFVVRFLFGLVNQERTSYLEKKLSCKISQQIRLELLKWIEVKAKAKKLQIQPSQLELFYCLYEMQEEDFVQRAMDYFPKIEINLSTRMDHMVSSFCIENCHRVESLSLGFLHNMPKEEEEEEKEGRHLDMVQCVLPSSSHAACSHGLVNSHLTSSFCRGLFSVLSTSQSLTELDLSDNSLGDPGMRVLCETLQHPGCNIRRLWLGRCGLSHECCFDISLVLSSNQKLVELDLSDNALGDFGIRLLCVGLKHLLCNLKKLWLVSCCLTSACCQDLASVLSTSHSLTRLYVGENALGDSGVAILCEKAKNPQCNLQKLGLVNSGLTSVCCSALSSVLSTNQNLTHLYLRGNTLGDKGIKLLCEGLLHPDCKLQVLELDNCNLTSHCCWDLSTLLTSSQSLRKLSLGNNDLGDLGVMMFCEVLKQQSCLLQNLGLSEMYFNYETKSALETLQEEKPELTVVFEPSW

For the compound `CC(C)(O)c1coc(S(=O)(=O)NC(=O)Nc2c3c(cc4c2CCC4)CCC3)c1`, the Drug metabolism result in data set [1], in data set [3] and in data set [4] was “Metabolite_Detected” each time. In addition, the half-maximal cytotoxic concentration (CC50) at 20 h in data set [2] and in data set [5] was above 62.5 µM each time.

For `CC(C)(O)c1coc(S(=O)(=O)NC(=O)Nc2c3c(cc4c2CC[C@@H]4O)CCC3)c1`, the IC50 in data set [6] stood at 6.35 µM.

On to `CC(C)(O)c1coc(S(=O)(=O)NC(=O)Nc2c3c(cc4c2CC(O)C4)CCC3)c1` (centres undefined), for which the CC50 at 20 h in data set [2] and in data set [5] was above 62.5 µM each time. In addition, the IC50 in data set [6] was 1.83 µM.

Take `CC(C)(O)c1coc(S(=O)(=O)NC(=O)Nc2c3c(cc4c2CC[C@H]4O)CCC3)c1`: the Drug metabolism entry in data set [7] and in data set [8] was “Metabolite_Detected” throughout. Also, the IC50 in data set [6] worked out at 1.24 µM.

Consider `CC(C)(O)c1coc(S(=O)(=O)NC(=O)Nc2c3c(cc4c2C(O)CC4)CCC3)c1` (racemic), for which the 50% cytotoxic concentration (CC50) at 20 h in data set [2] and in data set [5] was above 62.5 µM in each case. In addition, the IC50 in data set [6] turned out to be 0.232 µM.

On to `CC(C)(O)c1coc(S(=O)(=O)NC(=O)Nc2c3c(cc4c2CCC4O)CCC3)c1` (racemic), for which the CC50 at 20 h in data set [2] and in data set [5] was above 62.5 µM each time. For the same compound, in data set [8], the Drug metabolism result was “Metabolite_Detected”. The concentration for half-maximal inhibition (IC50) in data set [6] was 1.97 µM.
